US20070270371A1, “Dosing and scheduling of oligomers” (priority 2006, published 2007)
{FAM} = fluorescein (FAM) label

Tests used:
[1] = test system: PC-3-Bcl-2 xenograft tumors; settings: mouse, in vivo
Experimental: When the average tumor size was 65 mm^3, animals were randomized and the right flank of the xenograft tumor bearing mice were pre-treated with 5 Gy X-ray prior to administration of fluoresceinated G3139 oligonucleotide intravenously at a low dose of 6 mg/kg, daily for 5 days (top left panel); at a high dose of 10 mg/kg on given intermittently on days 1, 3, and 5 (top middle panel); a single dose of 30 mg/kg on the same day of X-ray pre-treatment (top right panel); and non-treated left flank bearing xenograft tumor (bottom 3 panels). Each mouse received a total dose of 30 mg/kg fluorescent G3139.
On day 8, animals were sacrificed, subcutaneous and organs were resected, and counterstained with DAPI as an internal staining control for nucleus staining. The resected tissues were processed as in Example 1 described above and fluorescence intensity was recorded using a stereomicroscope (Zeiss, 40) and spot camera (Qimaging). The signal intensity was recorded in three areas of each sample and quantified using MCID Elite (Imaging Research) and averaged to yield the reported intensities.

[2] = test system: A549 NSCLC xenograft tumors; assay: Tumor growth of NSCLC xenografts under G3139 dosing schedules (Example 4); assay type: in vivo, mice
Experimental: In vivo tumor model: NSCLC xenograft tumors were established in the flank of male athymic nude mice by injecting subcutaneously 5 to 9×10^6 A549 tumor cells. […] Twenty mg/kg injections every other days for 4 weeks (total 14 days) were also carried. At 30 mg/kg and 40 mg/kg, mice were injected every two- or three-day intervals respectively. (FIG. 6). The tumor growth were measured 15 - 55 days post-implantation and the tumor volumes were calculated based on the formula: [(width)^2×length]/2. […] Tumors in mice injected with higher doses but interminttently with 2-3 days intervals also grew slower than mice treated with daily doses at lower doses.

[3] = human, in vivo, iv; cited from earlier work
[4] = in vivo, sc; cited from earlier work

| persistence of the oligonucleotide in tumor after administration of radiation and G3139 ([1]; iv, 30 mg/kg) | Substance | staining of tumor cells [1] | tumor growth ([2]; 20 mg/kg IP every other day vs 10 mg/kg daily (total 280 mg/kg), 15-55 days post-implantation) | tumor growth ([2]; higher doses intermittently at 2-3 day intervals vs daily lower doses) | plasma half life [3] | time until plasma concentration becomes undetectable [3] | mean plasma half-life for elimination [4] | steady state plasma levels observed after the beginning of infusion [4] |
| --- | --- | --- | --- | --- | --- | --- | --- | --- |
|  | FAM-G3139: fluorescent G3139, F - TCTCCCAGCGTGCGCCAT-3′, phosphorothioate oligonucleotide targeting bcl-2 (all phosphorothioate, 5' {FAM}, sugars by position and methylation of C not given here) | no visible staining |  |  |  |  |  |  |
| 7 days | oblimersen [G3139] |  | grew slower | grew slower | about 60 minutes | ≤ 4 h | 7.46 h | 48 h |
